According to patent US10723741B1, “DNA polymerase IIIC inhibitors and use thereof” (Acurx Pharmaceuticals, LLC, priority 2018, dated 2020):
Converted amounts (≈) assume the structure as drawn. Where a name gives a salt, the structure may show the parent alone. Read-outs that look alike come from different tables or passages of the source.

Assays:
Type in all cases: cell-based
[1] = test system: Enterococcus faecium ATCC 700221 (VRE); experiment: Broth microdilution MIC, E. faecium ATCC 700221 (VRE); set-up: MIC E. faecium ATCC 700221 (VRE): unit: ug/mL; conditions: for MIC: Enterococcus faecium, read-out: MIC E. faecium ATCC 700221 (VRE)
Procedure, shortened: (§1)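 Two-fold dilutions from 64 to 0.0625 μg/ml final, 1% DMSO, were inoculated at ~5.0×10^5 cfu/ml in the strain's test medium and kept 20 h at 37 °C in ambient atmosphere. Colonies were grown on MHA, with S. pneumoniae on blood agar under 5% CO2.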

[2] = test system: Enterococcus faecalis ATCC 29212; experiment: Broth microdilution MIC, E. faecalis ATCC 29212; conditions: read-out: MIC E. faecalis ATCC 29212
Procedure, shortened: as §1

[3] = test system: Staphylococcus aureus NRS384 (MRSA); experiment: Broth microdilution MIC, S. aureus NRS384 (MRSA); set-up: MIC NRS 384 (MRSA): unit not given here; conditions: for MIC: Staphylococcus aureus, read-out: MIC NRS 384 (MRSA)
Procedure, shortened: as §1

[4] = test system: Escherichia coli ATCC 25922; experiment: Broth microdilution MIC, E. coli ATCC 25922 (MHIIB w & w/o 4 mM EDTA); conditions: for MIC: Escherichia coli, read-out: MIC E. coli ATCC 25922; for MIC E. coli ATCC 25922 + 4 mM EDTA: with 4 mM EDTA
Procedure, shortened: as §1

[5] = test system: Staphylococcus aureus ATCC 29213 (MSSA); experiment: Broth microdilution MIC, S. aureus ATCC 29213 (MSSA); conditions: read-out: MIC S. aureus ATCC 29213 (MSSA)
Procedure, shortened: as §1

[6] = test system: Bacillus subtilis ATCC 6633; experiment: Broth microdilution MIC, B. subtilis ATCC 6633; conditions: read-out: MIC B. subtilis ATCC 6633
Procedure, shortened: as §1

[7] = test system: Streptococcus pneumoniae ATCC 49619; experiment: Broth microdilution MIC, S. pneumoniae ATCC 49619; conditions: read-out: MIC S. pneumoniae ATCC 49619
Procedure, shortened: as §1

[8] = broth microdilution, 37° C., 20 hours
[9] = ATCC29212, broth microdilution, 37° C., 20 hours
[10] = ATCC25922, without EDTA, broth microdilution, 37° C., 20 hours
[11] = ATCC6633, broth microdilution, 37° C., 20 hours
[12] = ATCC49619, broth microdilution, 37° C., 20 hours

SMILES | MIC [1, 8] [µg/mL] | MIC [2, 9] [µg/mL] | MIC [3, 8] [µg/mL] | MIC [4, 10] [µg/mL] | MIC E. coli ATCC 25922 + 4 mM EDTA [4, 8] [µg/mL] | MIC [5, 8] [µg/mL] | MIC [6, 11] [µg/mL] | MIC [7, 12] [µg/mL] | MIC ([3]; S. aureus NRS 384, broth microdilution, 37° C., 20 hours) [µg/mL] | MIC ([1]; 20 h) [µg/mL] | MIC ([2]; ATCC29212, 20 h) [µg/mL] | MIC ([3]; 20 h) [µg/mL] | MIC ([4]; ATCC25922, 20 h) [µg/mL] | MIC ([5]; 20 h) [µg/mL] | MIC ([6]; ATCC6633, 20 h) [µg/mL] | MIC ([7]; ATCC49619, 20 h) [µg/mL] | MIC E. faecium ATCC 700221 (VRE) [1, 8] | MIC NRS 384 (MRSA) [3, 8]
CC(C)(C)NCCn1ncc2nc(NCc3ccc(Cl)c(Cl)c3)[nH]c(=O)c21 [Compound 62, 1-[2-(tert-Butylamino)ethyl]-5-[(3,4-dichlorophenyl)methylamino]-6H-pyrazolo[4,3-d]pyrimidin-7-one] | 8 (≈ 19.5 µM) | 8 (≈ 19.5 µM) | 16 (≈ 39.1 µM) | > 64 | 32 | 16 (≈ 39.1 µM) | 4 (≈ 9.77 µM) | 4 (≈ 9.77 µM) |  |  |  |  |  |  |  |  |  | 
Cn1ncc2nc(NCc3ncc[nH]3)[nH]c(=O)c21 [Compound 22, 5-(((1H-imidazol-2-yl)methyl)amino)-1-methyl-1H-pyrazolo[4,3-d]pyrimidin-7(6H)-one] | > 64 | > 64 | > 64 | > 64 | >64 | > 64 | > 64 | > 64 |  |  |  |  |  |  |  |  |  | 
COc1cncc(C(=O)N2CCC(n3ncc4nc(NCc5ccc(Cl)c(Cl)c5)[nH]c(=O)c43)CC2)c1.Cl [Compound 260, 5-((3,4-Dichlorobenzyl)amino)-1-(1-(5-methoxynicotinoyl)piperidin-4-yl)-1H-pyrazolo[4,3-d]pyrimidin-7(6H)-one hydrochloride] | 2 | 4 | 4 | > 64 | >64 | 4 | 1 | 4 |  |  |  |  |  |  |  |  |  | 
Cl.O=C(c1cccnc1)N1CCC(n2ncc3nc(NCc4ccc(Cl)c(Cl)c4)[nH]c(=O)c32)CC1 [Compound 256, 5-((3,4-Dichlorobenzyl)amino)-1-(1-nicotinoylpiperidin-4-yl)-1H-pyrazolo[4,3-d]pyrimidin-7(6H)-one hydrochloride] | 2 | 4 | 4 | > 64 | >64 | 8 | 2 | 4 |  |  |  |  |  |  |  |  |  | 
O=c1[nH]c(NCc2ccc(Cl)c(Cl)c2)nc2cn(CC3CCC3)nc12 [Compound 135, 2-(Cyclobutylmethyl)-5-((3,4-dichlorobenzyl)amino)-2H-pyrazolo[4,3-d]pyrimidin-7(6H)-one] | 8 (≈ 21.1 µM) | > 64 | 8 (≈ 21.1 µM) | > 64 | 8 | 32 (≈ 84.6 µM) | 4 (≈ 10.6 µM) | 16 (≈ 42.3 µM) |  |  |  |  |  |  |  |  |  | 
O=c1[nH]c(NCc2ccc(Cl)c(Cl)c2)nc2c(F)nn(CCOCCO)c12 [Compound 302, 5-[(3,4-Dichlorophenyl)methylamino]-3-fluoro-1-[2-(2-hydroxyethoxy)ethyl]-6H-pyrazolo[4,3-d]pyrimidin-7-one] | 1 (≈ 2.4 µM) | 2 (≈ 4.8 µM) |  | > 64 | >64 | 2 (≈ 4.8 µM) | 0.5 (≈ 1.2 µM) | 2 (≈ 4.8 µM) | 2 (≈ 4.8 µM) |  |  |  |  |  |  |  |  | 
O=C1CCC(Cn2ncc3nc(NCc4ccc(Cl)c(Cl)c4)[nH]c(=O)c32)N1 (stereo not shown) [Compound 93, 5-((3,4-Dichlorobenzyl)amino)-1-((5-oxopyrrolidin-2-yl)methyl)-1H-pyrazolo[4,3-d]pyrimidin-7(6H)-one] | 4 (≈ 9.82 µM) | 8 (≈ 19.6 µM) | 16 (≈ 39.3 µM) | > 64 | 64 | 8 (≈ 19.6 µM) | 4 (≈ 9.82 µM) | 2 (≈ 4.91 µM) |  |  |  |  |  |  |  |  |  | 
COc1ccncc1C(=O)N1CCC(n2ncc3nc(NCc4ccc(Cl)c(Cl)c4)[nH]c(=O)c32)CC1.Cl [Compound 266, 5-((3,4-Dichlorobenzyl)amino)-1-(1-(4-methoxynicotinoyl)piperidin-4-yl)-1H-pyrazolo[4,3-d]pyrimidin-7(6H)-one hydrochloride] | 2 | 4 | 8 | > 64 | >64 | 8 | 2 | 4 |  |  |  |  |  |  |  |  |  | 
CN1CCCC(c2nc(Cn3ncc4nc(NCc5ccc(Cl)c(Cl)c5)[nH]c(=O)c43)co2)C1.Cl (stereo not shown) [Compound 172, 5-((3,4-dichlorobenzyl)amino)-1-((2-(1-methylpiperidin-3-yl)oxazol-4-yl)methyl)-1H-pyrazolo[4,3-d]pyrimidin-7(6H)-one hydrochloride] | 8 | 16 | 16 | > 64 | 64 | 16 | 4 | 8 |  |  |  |  |  |  |  |  |  | 
Cl.O=c1[nH]c(NCc2ccc(Cl)c(Cl)c2)nc2cnn(CCN3CCC(O)CC3)c12 [Compound 65, 5-((3,4-Dichlorobenzyl)amino)-1-(2-(4-hydroxypiperidin-1-yl)ethyl)-1H-pyrazolo[4,3-d]pyrimidin-7(6H)-one hydrochloride] | 8 | 8 | 16 | > 64 | 64 | 16 | 4 | 4 |  |  |  |  |  |  |  |  |  | 
O=c1[nH]c(NCc2ccc(Cl)c(Cl)c2)nc2cn(C3CCNC3)nc12 (stereo not shown) [Compound 215, 5-((3,4-Dichlorobenzyl)amino)-2-(pyrrolidin-3-yl)-2H-pyrazolo[4,3-d]pyrimidin-7(6H)-one TFA salt] |  |  |  |  | 64 |  |  |  |  | > 64 | > 64 | > 64 | > 64 | > 64 | 64 | 16 |  | 
O=c1[nH]c(NCc2ccc(Cl)c(Cl)c2)nc2cnn(CC3COCCO3)c12 (stereo not shown) [Compound 105, 1-((1,4-Dioxan-2-yl)methyl)-5-((3,4-dichlorobenzyl)amino)-1H-pyrazolo[4,3-d]pyrimidin-7(6H)-one] |  | 8 (≈ 19.5 µM) |  | > 64 | >64 | 4 (≈ 9.75 µM) | 1 (≈ 2.44 µM) | 4 (≈ 9.75 µM) |  |  |  |  |  |  |  |  | 4/2 | 4/2
O=c1[nH]c(NCc2ccc(Cl)c(Cl)c2)nc2cnn(C3COC3)c12 [Compound 142, 5-((3,4-Dichlorobenzyl)amino)-1-(oxetan-3-yl)-1H-pyrazolo[4,3-d]pyrimidin-7(6H)-one] | 2 (≈ 5.46 µM) | 4 (≈ 10.9 µM) | 2 (≈ 5.46 µM) | > 64 | >64 | 4 (≈ 10.9 µM) | 1 (≈ 2.73 µM) | 4 (≈ 10.9 µM) |  |  |  |  |  |  |  |  |  | 
CNCC(COC)OCCn1ncc2nc(NCc3ccc(Cl)c(Cl)c3)[nH]c(=O)c21.Cl (stereo not shown) [Compound 184, 5-((3,4-dichlorobenzyl)amino)-1-(2-((1-methoxy-3-(methylamino)propan-2-yl)oxy)ethyl)-1H-pyrazolo[4,3-d]pyrimidin-7(6H)-one] | 64 | 64 | 64 | > 64 | 64 | 64 | 8 | 8 |  |  |  |  |  |  |  |  |  | 
